Laboratory results as given in patent publication US11225505B2, “Antimicrobial polymyxin derivative compounds” (MONASH UNIVERSITY, priority 2015, dated 2022).
Values after ≈ are worked out from the molar mass of the structure shown. Where a SMILES comes first, the peptide text is derived from it. Bridges are numbered along the chain shown (N, C = ends). [ ]: non-standard residue; d: D form. The star is where a group is joined. X48 = O=C(c1ccc(Cl)nc1)*; Dab = NCC[C@H](N)C(=O)O; Abu = CC[C@H](N)C(=O)O; Dap = NC[C@H](N)C(=O)O

Columns and labels:
mouse kidney = experiment: Nephrotoxicity in a mouse model (kidney histology); assay type: in vivo; conditions: mice (n=3), subcutaneous 12 mg/kg free base every 2 h, 6 doses in one day
Description: Polymyxin B sulphate and colistin sulphate were supplied by Betapharma (Shanghai Co., Ltd, China). Stock solutions of compounds in saline (5 mg base/mL) were stored at 4° C. before use. Mice (n=3) were subcutaneously administered with the compound at 12 mg/kg of the free base form every 2 h, 6 doses in one day. At approximately 20 h after the last dose, mice were euthanised by inhalation of an overdose of isoflurane. Immediately after blood sampling, the right kidney from each mouse was collected immediately and placed in 10% formalin in 5 mL plastic tubes and the left kidney placed in a pre-weighed 14 mL plastic tubes, weighed again and stored at −20° C. pending homogenization and analysis of polymyxin B and colistin. The frozen kidney samples were thawed, homogenized in 2 mL of Milli-Q water and stored in a −20° C. freezer. The formalin-fixed kidneys were then sent to the Australian Phenomics Network-Histopathology and Organ Pathology (The University of Melbourne, Parkville, Australia) for histological examination. Samples were examined by a pathologist who was blind to the treatment groups.
Lesions were rated as follows: mild acute tubular damage with tubular dilation, prominent nuclei and a few pale tubular casts (Grade 1); severe acute tubular damage with necrosis of tubular epithelial cells and numerous tubular casts (Grade 2); acute cortical necrosis/infarction of tubules and glomeruli with or without papillary necrosis (Grade 3). The grades were given the following scores: grade 1=1, grade 2=4, and grade 3=10. The percentage of area of the kidney slice showing histological damage was scored as follows: <1%=0, 1 to <5%=1, 5 to <10%=2, 10 to <20%=3, 20 to <30%=4, 30 to <40%=5, and >40%=6. The overall kidney histological score was calculated as the product of the percentage score and grade score. These scores were then expressed as a semiquantitative score (Kidney Histological Score) on a scale of 0 to +5 for renal histological changes. These scores were assigned as follows: SQS 0=no significant change (overall score, <1); SQS +1=mild damage (overall score, 1 to <15); SQS +2=mild to moderate damage (overall score, 15 to <30); SQS +3=moderate damage (overall score, 30 to <45); SQS +4=moderate to severe damage (overall score, 45 to <60); and SQS +5=severe damage (overall score, ≥60) (Yousef, J., et al., (2011) Antimicrob. Agents and Chemother. 55 (9), 4044-4049).
Any compound with a kidney histological score of ≤+1.0 is considered to have a low nephrotoxicity in this model.

[1] = tested on: Acinetobacter baumannii FADDI-AB030; experiment: microbe, parasite or virus in culture; assay type: cell-based; conditions: A. baumannii FADDI-AB030; CAMHB broth microdilution
In short: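 Lipopeptide TFA salts tested against the multidrug-resistant clinical isolate by CLSI (M100-S24) broth microdilution in cation-adjusted Mueller-Hinton broth, with polymyxin B sulphate as control; MIC read.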

[2] = tested on: Acinetobacter baumannii ATCC 17978; assay type: cell-based; conditions: A. baumannii ATCC 17978; CAMHB broth microdilution
In short: (§1)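 Lipopeptides (TFA salts) tested against Gram-negative strains by CLSI broth microdilution using cation-adjusted Mueller-Hinton broth; MIC recorded, polymyxin B sulphate as control.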

[3] = tested on: Acinetobacter baumannii FADDI-AB034; assay type: cell-based; conditions: A. baumannii FADDI-AB034; CAMHB broth microdilution
In short: as §1

[4] = tested on: Enterobacter cloacae FADDI-EC001; assay type: cell-based; conditions: E. cloacae FADDI-EC001; CAMHB broth microdilution
In short: (§2)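 MICs were determined by broth microdilution in cation-adjusted Mueller-Hinton broth following the CLSI M100-S24 protocol. Lipopeptides were tested as trifluoroacetic acid salts against polymyxin-susceptible Gram-negative strains, with polymyxin B sulphate as control. FADDI-PA022 and FADDI-AB034 are multidrug-resistant clinical isolates.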

[5] = tested on: Klebsiella pneumoniae Kp BM1; assay type: cell-based; conditions: K. pneumoniae Kp BM1; CAMHB broth microdilution
In short: as §2

[6] = tested on: Enterobacter cloacae FADDI-EC003; assay type: cell-based; conditions: E. cloacae FADDI-EC003; CAMHB broth microdilution
In short: as §1

[7] = tested on: Klebsiella pneumoniae FADDI-KP022; assay type: cell-based; conditions: K. pneumoniae FADDI-KP022; CAMHB broth microdilution
In short: as §1

[8] = tested on: Pseudomonas aeruginosa FADDI-PA01; assay type: cell-based; conditions: P. aeruginosa FADDI-PA01; CAMHB broth microdilution
In short: as §1

[9] = tested on: Enterobacter cloacae FADDI-EC006; assay type: cell-based; conditions: E. cloacae FADDI-EC006; CAMHB broth microdilution
In short: as §1

[10] = tested on: Klebsiella pneumoniae FADDI-KP032; assay type: cell-based; conditions: K. pneumoniae FADDI-KP032; CAMHB broth microdilution
In short: as §1

[11] = tested on: Pseudomonas aeruginosa ATCC 27853; assay type: cell-based; conditions: P. aeruginosa ATCC 27853; CAMHB broth microdilution
In short: as §1

[12] = tested on: Pseudomonas aeruginosa FADDI-PA038; assay type: cell-based; conditions: P. aeruginosa FADDI-PA038; CAMHB broth microdilution
In short: as §1

[13] = tested on: Pseudomonas aeruginosa FADDI-PA022; assay type: cell-based; conditions: P. aeruginosa FADDI-PA022; CAMHB broth microdilution
In short: as §1

CC[C@@H]1NC(=O)[C@@H](CC(C)C)NC(=O)[C@H](CCN)NC(=O)[C@@H](NC(=O)[C@H](CN)NC(=O)[C@@H](NC(=O)[C@H](CCN)NC(=O)c2ccc(Cl)nc2)[C@@H](C)O)CCNC(=O)[C@H]([C@@H](C)O)NC(=O)[C@H](CCN)NC(=O)[C@H](CCN)NC1=O [Compound 4] (X48-[Dab]T[Dap][Dab][Dab][dL][Abu][Dab][Dab]T; lactam 4-C)
Max Overall Kidney Histological Score (mouse kidney; kidney ~20 h after last dose): 0.0 | Max Kidney Histological Score (mouse kidney; semiquantitative score 0 to +5): 0 (SQS 0=no significant change (overall score, <1)) | Minimum inhibitory concentration [1]: 2 µg/mL (≈ 1.78 µM) | Minimum inhibitory concentration [2]: 1 µg/mL (≈ 0.888 µM) | Minimum inhibitory concentration [3]: 1 µg/mL (≈ 0.888 µM) | Minimum inhibitory concentration [4]: 2 µg/mL (≈ 1.78 µM) | Minimum inhibitory concentration [5]: 2 µg/mL (≈ 1.78 µM) | Minimum inhibitory concentration [6]: 0.5 µg/mL (≈ 0.444 µM) | Minimum inhibitory concentration [7]: 0.5 µg/mL (≈ 0.444 µM) | Minimum inhibitory concentration [8]: 0.5 µg/mL (≈ 0.444 µM) | Minimum inhibitory concentration [9]: 4 µg/mL (≈ 3.55 µM) | Minimum inhibitory concentration [10]: 1 µg/mL (≈ 0.888 µM) | Minimum inhibitory concentration [11]: 0.5 µg/mL (≈ 0.444 µM) | Minimum inhibitory concentration [12]: 1 µg/mL (≈ 0.888 µM) | Minimum inhibitory concentration [13]: 1 µg/mL (≈ 0.888 µM)
